From ChEMBL document CHEMBL1909046, “DrugMatrix in vitro pharmacology data” come the findings set out here.

SMILES strings stand for the structures.

The target in test [1] is T1, Cytochrome P450 1A2 (Homo sapiens, UniProt P05177).
T1 sequence (P05177 whole entry): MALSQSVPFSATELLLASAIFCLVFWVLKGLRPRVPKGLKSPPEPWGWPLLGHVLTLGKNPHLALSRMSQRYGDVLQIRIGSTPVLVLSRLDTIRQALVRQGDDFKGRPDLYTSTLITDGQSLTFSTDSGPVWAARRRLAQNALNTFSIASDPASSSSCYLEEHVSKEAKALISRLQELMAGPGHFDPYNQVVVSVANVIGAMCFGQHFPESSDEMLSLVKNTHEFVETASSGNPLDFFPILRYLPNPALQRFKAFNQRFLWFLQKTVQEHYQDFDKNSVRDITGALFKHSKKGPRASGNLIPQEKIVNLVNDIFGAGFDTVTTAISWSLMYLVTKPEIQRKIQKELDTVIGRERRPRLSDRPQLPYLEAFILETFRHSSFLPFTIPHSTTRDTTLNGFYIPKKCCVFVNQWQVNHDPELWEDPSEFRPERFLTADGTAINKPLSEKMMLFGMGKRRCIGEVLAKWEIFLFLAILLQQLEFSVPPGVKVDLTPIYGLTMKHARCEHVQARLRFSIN

Test [2] concerns the target Cytochrome P450 2D6 (Homo sapiens, UniProt P10635).
The target in test [3] is Cytochrome P450 2C19 (Homo sapiens, UniProt P33261).
The target of test [4] is Cytochrome P450 2C9 (Homo sapiens, UniProt P11712).
The target in test [5] is T2, Androgen receptor (Rattus norvegicus, UniProt P15207).
T2 sequence (P15207 whole entry): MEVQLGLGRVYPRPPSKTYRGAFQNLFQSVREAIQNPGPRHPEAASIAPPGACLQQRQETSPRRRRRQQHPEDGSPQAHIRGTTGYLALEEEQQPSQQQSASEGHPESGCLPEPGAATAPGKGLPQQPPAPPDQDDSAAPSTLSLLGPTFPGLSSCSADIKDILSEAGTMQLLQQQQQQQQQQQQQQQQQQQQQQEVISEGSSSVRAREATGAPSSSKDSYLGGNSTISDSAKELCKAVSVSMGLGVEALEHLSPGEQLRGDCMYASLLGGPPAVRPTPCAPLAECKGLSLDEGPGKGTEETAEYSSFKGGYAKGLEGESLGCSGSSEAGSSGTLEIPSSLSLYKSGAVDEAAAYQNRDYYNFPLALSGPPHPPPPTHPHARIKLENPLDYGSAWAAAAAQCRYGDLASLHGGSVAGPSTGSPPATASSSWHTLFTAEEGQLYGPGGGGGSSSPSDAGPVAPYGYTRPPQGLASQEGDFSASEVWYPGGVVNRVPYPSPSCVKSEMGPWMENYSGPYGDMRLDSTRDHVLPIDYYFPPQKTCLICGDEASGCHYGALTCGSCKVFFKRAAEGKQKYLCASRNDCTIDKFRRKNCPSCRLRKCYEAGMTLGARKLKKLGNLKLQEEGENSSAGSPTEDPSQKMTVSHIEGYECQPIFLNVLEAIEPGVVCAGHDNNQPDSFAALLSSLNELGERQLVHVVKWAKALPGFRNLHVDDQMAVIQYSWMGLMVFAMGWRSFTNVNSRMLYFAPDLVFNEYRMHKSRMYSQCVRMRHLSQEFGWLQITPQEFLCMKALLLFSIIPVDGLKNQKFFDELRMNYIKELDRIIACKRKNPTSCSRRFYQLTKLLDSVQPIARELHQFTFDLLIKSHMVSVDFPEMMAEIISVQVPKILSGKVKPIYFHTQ

Chain of Cytochrome P450 2D6 (P10635 whole entry): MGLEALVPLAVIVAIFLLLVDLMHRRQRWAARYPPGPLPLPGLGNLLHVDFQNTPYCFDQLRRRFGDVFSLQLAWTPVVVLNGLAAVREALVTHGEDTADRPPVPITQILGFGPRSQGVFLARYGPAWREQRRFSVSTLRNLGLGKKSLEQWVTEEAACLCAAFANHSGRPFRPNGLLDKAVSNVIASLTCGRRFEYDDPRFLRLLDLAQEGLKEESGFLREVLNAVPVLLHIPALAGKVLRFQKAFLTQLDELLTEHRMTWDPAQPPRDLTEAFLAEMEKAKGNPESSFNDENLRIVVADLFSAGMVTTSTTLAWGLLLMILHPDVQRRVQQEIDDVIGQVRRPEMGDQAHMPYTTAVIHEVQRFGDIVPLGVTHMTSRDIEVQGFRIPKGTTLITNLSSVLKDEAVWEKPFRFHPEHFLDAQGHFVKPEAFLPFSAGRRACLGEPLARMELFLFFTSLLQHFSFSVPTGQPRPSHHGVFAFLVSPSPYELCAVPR
Chain of Cytochrome P450 2C9 (P11712 whole entry): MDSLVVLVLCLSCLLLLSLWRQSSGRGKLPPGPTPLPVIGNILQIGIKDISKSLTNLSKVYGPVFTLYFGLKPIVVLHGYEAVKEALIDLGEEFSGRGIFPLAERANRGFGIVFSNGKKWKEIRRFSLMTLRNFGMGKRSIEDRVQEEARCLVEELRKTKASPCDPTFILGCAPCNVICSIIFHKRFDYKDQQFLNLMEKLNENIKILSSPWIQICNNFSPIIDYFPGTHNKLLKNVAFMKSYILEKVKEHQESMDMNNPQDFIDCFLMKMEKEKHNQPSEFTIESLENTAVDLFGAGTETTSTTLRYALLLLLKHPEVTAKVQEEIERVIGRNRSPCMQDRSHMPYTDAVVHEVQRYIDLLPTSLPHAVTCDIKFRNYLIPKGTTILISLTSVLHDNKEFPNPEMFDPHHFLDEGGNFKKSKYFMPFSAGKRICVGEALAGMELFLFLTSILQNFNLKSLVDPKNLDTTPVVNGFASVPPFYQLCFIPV
Chain of Cytochrome P450 2C19 (P33261 whole entry): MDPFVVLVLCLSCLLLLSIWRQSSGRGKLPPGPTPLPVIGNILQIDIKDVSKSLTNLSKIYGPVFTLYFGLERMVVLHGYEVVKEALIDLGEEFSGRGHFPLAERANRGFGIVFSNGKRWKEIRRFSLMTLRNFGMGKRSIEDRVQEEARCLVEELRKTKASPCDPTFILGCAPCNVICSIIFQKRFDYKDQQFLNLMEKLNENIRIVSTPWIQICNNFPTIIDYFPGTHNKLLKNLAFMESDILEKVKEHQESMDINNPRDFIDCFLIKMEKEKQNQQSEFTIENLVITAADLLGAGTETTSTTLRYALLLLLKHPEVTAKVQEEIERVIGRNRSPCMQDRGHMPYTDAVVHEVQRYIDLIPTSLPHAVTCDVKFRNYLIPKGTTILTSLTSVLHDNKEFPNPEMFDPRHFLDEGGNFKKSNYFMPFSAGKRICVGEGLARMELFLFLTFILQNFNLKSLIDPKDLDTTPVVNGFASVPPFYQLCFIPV

In test [1], `O=c1[nH]c2ccccc2c2ccccc12` displayed a concentration for half-maximal inhibition (IC50) of 0.016 µM. As to `CC(N)Cc1c[nH]c2ccc(OCc3cccs3)cc12` (stereo not given) [BW-723C86], the IC50 in test [1] was 0.874 µM; in test [2] it was 2.77 µM. In test [1], `c1ccc2c(c1)Nc1ccccc1S2` [PHENOTHIAZINE] yielded a half-inhibitory concentration (IC50) of 0.016 µM.

Turning to `COc1cc([C@@H]2c3cc4c(cc3[C@H](O)[C@H]3COC(=O)[C@H]23)OCO4)cc(OC)c1OC` [PODOFILOX], the figures for the IC50 in test [3] and in test [4] were 5 µM and 4 µM, respectively. `CCCCCCNC(=O)n1cc(F)c(=O)[nH]c1=O` [CARMOFUR] gave an IC50 in test [2] of 5 µM. In the case of `CC(C)(c1ccc(O)cc1)c1ccc(O)cc1` [BISPHENOL A], in test [5], it took 33.8 µM to reach half-maximal inhibition (IC50) and the inhibition constant Ki is 22.5 µM.

`CN(CCOc1ccc(C[C@H](Nc2ccccc2C(=O)c2ccccc2)C(=O)O)cc1)c1ccccn1` displayed an IC50 in test [4] of 4 µM. This lies in the single-digit micromolar range. Compound `CC(=O)Nc1ccc2c(c1)Cc1ccccc1-2` [2-ACETYLAMINOFLUORENE] returned a 50% inhibitory concentration (IC50) in test [1] of 0.016 µM. In turn, `CN(Cc1cc(Br)cc(Br)c1N)C1CCCCC1` [BROMHEXINE] yielded a half-maximal inhibitory concentration (IC50) in test [2] of 0.196 µM. In other words, the sub-micromolar range. `Cc1cc(C(C)(C)C)c(O)c(C)c1CC1=NCCN1` [OXYMETAZOLINE] had a concentration for half-maximal inhibition (IC50) in test [2] of 0.2 µM. The IC50 values of the last two compounds are within 1.5-fold of each other. On to `c1ccc(Cn2ccnc2)cc1`, for which the IC50 in test [1] is 0.2 µM; in test [2], 2 µM.
